# Data: patent US6667165B2, “Method and compositions for reversible inhibition of thermostable polymerases” (Eppendorf AG, priority 2001, dated 2003)
# Assays:
# Format in all cases: biochemical
# Taq DNA polymerase [1] = molecular target: T1, Taq DNA polymerase (Thermus aquaticus, UniProt P19821); assay: Primer extension assay quantified with picogreen (de-novo synthesized ds DNA); conditions: Mw4000, Mw5000, Mw8000 at 175 μmol, 30 μmol and 32 μmol; 5 minutes incubation; FIG. 10
# T1 construct: purchased Eppendorf AG
# Description: FIG. 10 graphically illustrates the temperature dependent inhibition of Taq DNA polymerase by dextran sulfate Mw4000, Mw5000, and Mw8000 which have been quantitatively analyzed. In each reaction the amount of de-novo synthesized double-stranded DNA was quantified with picogreen on a Fluorescence Microplate Reader. The amount of double-stranded DNA in the control reactions with unmodified Taq polymerase at each temperature tested were taken as 100% activity at the corresponding reaction temperature. […] at the corresponding reaction temperature and multiplied by 100 to calculate the percent of residual activity of dextran sulfate inhibited Taq polymerase from the activity of the unmodified enzyme at that temperature (bold line graphs). 100 minus the percent of residual activity of dextran sulfate inhibited Taq polymerase represents the percent of relative activity inhibition of dextran sulfate/Taq polymerase complexes at each temperature shown with dotted line graphs.
# Primer extension was set-up as described in Example 4. The final concentrations of dextran sulfate Mw4000, Mw5000 and Mw8000 were adjusted to 175 μmol, 30 μmol and 32 μmol, respectively. At each tested incubation temperature a control reaction was carried out with unmodified Taq polymerase. After 5 minutes incubation the reactions were stopped as described earlier. 25.2 μl out of 50 μl were used to quantify the yield of de-novo synthesized double-stranded DNA with picogreen. The picogreen stained DNA samples were measured on a Fluorescence Microplate Reader.
# The amount of double-stranded DNA in the control reactions with unmodified Taq polymerase at each temperature tested were taken as 100% activity at the corresponding reaction temperature. […]
# Taq DNA polymerase [2] = molecular target: T1, Taq DNA polymerase; assay: M13 phage DNA primer extension assay (agarose gel read-out); conditions: for inhibition of Taq DNA polymerase at 40° C. (FIG. 5) / inhibition of Taq DNA polymerase (FIG. 6): 40° C.; for inhibitory effect on Taq DNA polymerase in primer extension assay: 51° C., carbohydrates 1% w/vol, ds Lambda DNA 5 μg/rxn, 10 minutes pre-incubation with Taq; for restoration of Taq DNA polymerase activity at 60° C.: concentration range tested, lowest 10 μmol
# Description: A simple non-radioactive primer extension assay was used to monitor the activity of Taq DNA polymerase for DNA synthesis at various temperatures. The universal −47 M13 24-mer sequencing primer (New England Biolabs, Inc.) was annealed to circular single-stranded virion DNA from E. coli phage M13 (New England Biolabs, Inc.) to form an appropriate template for DNA synthesis by Taq DNA polymerase.
# During the assay reactions, the annealed primer is extended by stepwise addition of complementary nucleotides (dNTP) on the single-stranded template DNA with Taq polymerase. The polymerase mediated primer extension reaction transforms the circular single-stranded (ss) template DNA into a double-stranded (ds) plasmid-like circular DNA molecule, as shown in FIG. 1. A completely ds circular phage DNA molecule is synthesized when the de-novo synthesized complementary strand reaches the 5′ end of the extended primer. This terminates the DNA synthesis process due to the weak strand displacement activity of Taq DNA polymerase. The ss primed template DNA, the full length ds circular DNA synthesis product, and intermediate synthesis products with ds regions of variable length differ from each other by their electrophoretic mobility in 1% agarose gels. The initial DNA template and all reaction products can be separated and monitored by electrophoresis in a 1% […] agarose gel stained with ethidium bromide.
# The electrophoretic mobility of the three species reciprocally correlates with the length of the de-novo synthesized complementary strand. With increasing length of the ds regions, the migration of intermediate primer extension products shifts toward the slow migrating band of ds circular DNA (full-length synthesis product). The amount (band intensity) of the ds full-length synthesis product, as well as the migration shift of intermediate primer extension product, were used as a measure for the activity and extension rate of Taq DNA polymerase under various reaction conditions.
# After the denaturation/annealing reaction the primed ss template DNA was stored frozen at −20° C. until use. 5 μL of this primed ss template DNA mix were added into a 50 μL primer extension assay reaction, or 2 μL into a 20 μL assay, respectively. The primer extension assay reactions were set-up on ice in 0.2 mL PCR tubes adding the reaction components to the following final concentrations:
# The primer extension reactions were incubated for either 20 or 40 minutes on Eppendorf Mastercyclers set to the desired reaction temperature (30° C.-70° C.). At the end of the incubation time the reaction were placed on ice and 1 μL of 100 mM EDTA was added to stop the reaction immediately. 20 μL of each primer extension assay reaction were loaded on the 1% agarose gel for further analysis.
# Soluble carbohydrates 5% w/vol aqueous solutions in molecular biology grade water were prepared. The desired carbohydrates or ds DNA were added to the primer extension reaction described above in Example 2 to final concentrations of 1% w/vol. In modification of the original primer extension assay the reaction mixtures were set-up without the primed template DNA. The primer-template DNA was added to the Taq DNA polymerase/carbohydrate sample after a 10 minutes pre-incubation in order to permit preliminary interaction of the carbohydrate with the Taq DNA polymerase, i.e., pre-incubate the carbohydrate onto the Taq DNA polymerase. The primer extension reactions were incubated for 40 minutes at 51° C. (the critical temperature for specific primer annealing). 20 μl of the reaction mixtures were analyzed on 0.7% agarose gel.
# Primer extension assays were carried out in the presence of various concentration of dextran sulfate Mw 1500 (see FIG. 4), Mw 4000, Mw 5000 and Mw 8000 (see FIGS. 5 and 6). The reaction set-up was modified so that the dextran sulfates were pre-mixed into the Taq polymerase solution (5 U/μl) to provide final concentrations as indicated in the Figures. […]
# Taq DNA polymerase [3] = molecular target: T1, Taq DNA polymerase; assay: 2 kb human β-globin gene fragment PCR, specificity and yield on agarose gel
# Protocol: In order to amplify a predictable sized DNA fragment of the human β-globin gene, a pair of known primers was selected from a region of the human β-globin gene (Collins et al (1984) Prog Nucleic Acid Res Mol Biol 31:315-462 to yield PCR products with length of 2.0 kb: The Taq DNA polymerase 5 U/μl containing 0.2 mM dextran sulfate Mw4000 was used in the PCR mixtures (10 mM Tris-HCl, pH 8.3, 50 mM KCl, 2.5 mM Mg(OAc)2, 200 μM dNTP) in which human genomic DNA (100 ng) was used as template. The PCR was performed as follows: 94° C. for 2 min followed by 35 cycles of 55° C.—20 seconds, 72° C.—2:30 minutes and 94° C. for −15 seconds. The PCR products were subjected to agarose gel electrophoresis. Negative control experiments were carried out under the same PCR conditions except that unmodified Taq DNA Polymerase was used in the reaction. A positive control experiment was carried out in the same PCR conditions except that AmpliTaq Gold DNA Polymerase (Perkin Elmer Biosystems), the market leading product for performing highly specific hot start PCR, with the appropriate reaction buffer were used in the reaction.
# The same basic PCR assay was performed as described in the previous Examples, except that Taq DNA polymerase preparations were mixed with increasing amounts of dextran sulfate Mw4000. […]
# [4] = 20 minutes, first concentration ranges
# [5] = 20 minutes, re-fined concentration ranges
# T1 sequence (P19821 whole entry): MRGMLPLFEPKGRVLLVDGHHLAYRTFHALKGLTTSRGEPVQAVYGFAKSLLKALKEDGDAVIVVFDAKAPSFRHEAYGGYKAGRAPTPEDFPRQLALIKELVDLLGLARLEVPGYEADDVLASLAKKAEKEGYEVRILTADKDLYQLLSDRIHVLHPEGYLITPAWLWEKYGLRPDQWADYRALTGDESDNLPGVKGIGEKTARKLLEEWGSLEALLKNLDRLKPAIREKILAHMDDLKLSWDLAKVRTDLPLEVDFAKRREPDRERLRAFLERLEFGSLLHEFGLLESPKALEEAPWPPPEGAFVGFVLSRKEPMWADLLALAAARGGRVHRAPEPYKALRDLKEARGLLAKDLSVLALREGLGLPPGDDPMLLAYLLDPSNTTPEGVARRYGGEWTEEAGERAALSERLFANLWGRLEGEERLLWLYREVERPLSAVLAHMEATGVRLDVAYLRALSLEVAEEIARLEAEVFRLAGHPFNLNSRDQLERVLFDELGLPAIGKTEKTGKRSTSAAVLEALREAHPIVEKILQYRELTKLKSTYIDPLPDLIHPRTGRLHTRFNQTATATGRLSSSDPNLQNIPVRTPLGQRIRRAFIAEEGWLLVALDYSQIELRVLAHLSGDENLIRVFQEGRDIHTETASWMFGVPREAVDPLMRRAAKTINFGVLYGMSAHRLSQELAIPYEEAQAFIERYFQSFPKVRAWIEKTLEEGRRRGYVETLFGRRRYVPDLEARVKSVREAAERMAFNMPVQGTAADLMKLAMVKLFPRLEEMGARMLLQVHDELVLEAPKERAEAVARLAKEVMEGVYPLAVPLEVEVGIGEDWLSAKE
substance,measurement,setting,value
dextran sulfate [dextran sulfate Mw 5000],temperature dependence of Taq DNA polymerase inhibition (relative to unmodified Taq),Taq DNA polymerase [1],inhibit Taq DNA polymerase in a temperature dependent manner
same,inhibition of Taq DNA polymerase at 40° C. (FIG. 5),Taq DNA polymerase [2]; [4],strong inhibition
same,inhibition of Taq DNA polymerase (FIG. 6),Taq DNA polymerase [2]; [5],strongest inhibition of all dextran sulfate derivatives tested
same,inhibitory effect on Taq DNA polymerase in primer extension assay,Taq DNA polymerase [2]; MW 5000,strong inhibition
same,inhibitory effect on Taq DNA polymerase in primer extension assay,Taq DNA polymerase [2]; listed as dextran sulfate having a molecular weight of 5000,strong inhibitor
same,concentration at which almost full Taq polymerase activity could be restored between 60-70° C.,"Taq DNA polymerase [2]; 20 minutes, dextran sulfate pre-mixed into Taq polymerase solution",1.25 µM
same,concentration range with strong inhibition at 40° C. and release of almost full activity at 70° C. (FIG. 5),"Taq DNA polymerase [2]; first concentration ranges, 40° C.-70° C., 20 minutes",1.25 µmol
same,concentration range with strong inhibition at 40° C. and release of almost full activity at 70° C. (FIG. 6),"Taq DNA polymerase [2]; re-fined concentration ranges, 40° C.-70° C., 20 minutes",1.25 µmol
dextran sulfate [dextran sulfate Mw 8000],temperature dependence of Taq DNA polymerase inhibition (relative to unmodified Taq),Taq DNA polymerase [1],inhibit Taq DNA polymerase in a temperature dependent manner
same,inhibition of Taq DNA polymerase at 40° C. (FIG. 5),Taq DNA polymerase [2]; [4],strong inhibition
same,inhibition of Taq DNA polymerase (FIG. 6),Taq DNA polymerase [2]; [5],strong inhibition
dextran sulfate [dextran sulfate Mw 4000],temperature dependence of Taq DNA polymerase inhibition (relative to unmodified Taq),Taq DNA polymerase [1],inhibit Taq DNA polymerase in a temperature dependent manner
same,inhibition of Taq DNA polymerase at 40° C. (FIG. 5),Taq DNA polymerase [2]; [4],strong inhibition
same,inhibition of Taq DNA polymerase (FIG. 6),Taq DNA polymerase [2]; [5],strong inhibition
same,effect on specificity of the PCR reaction,"Taq DNA polymerase [3]; 100 ng human genomic DNA, Taq 5 U/μl containing 0.2 mM dextran sulfate, 35 cycles, FIG. 7",significantly enhanced the specificity
same,yield and specificity of the 2 kb PCR fragment versus concentration,"Taq DNA polymerase [3]; increasing amounts of dextran sulfate, FIG. 8",clear correlation
methylcellulose [reference compound],inhibitory effect on Taq DNA polymerase in primer extension assay,Taq DNA polymerase [2],weak inhibitory effect
dextran sulfate [dextran sulfate Mw 1500],concentration at which partial release of inhibition was detected,"Taq DNA polymerase [2]; 50° C. and 60° C., FIG. 4",< 50 µmol
same,restoration of Taq DNA polymerase activity at 60° C.,Taq DNA polymerase [2]; 20 minutes,only be partially restored
same,restoration of Taq DNA polymerase activity at 60° C.,"Taq DNA polymerase [2]; 20 minutes, listed as dextran sulfate Mw 1,500",full synthesis activity could not be regained
